Results as given in ChEMBL document CHEMBL4334512, “Rationally Designed, Conformationally Constrained Inverse Agonists of RORγt-Identification of a Potent, Selective Series with Biologic-Like in Vivo Efficacy” (J Med Chem, 2019).

Columns and labels:
[1] = Half life in mouse liver microsomes; type: ADME, Microsome
[2] = Half life in rat liver microsomes; type: ADME, Microsome
[3] = target: T1, Oxysterols receptor LXR-beta (Homo sapiens, UniProt P55055); test: Activity at LXRbeta (unknown origin)
T1 sequence (P55055 whole entry): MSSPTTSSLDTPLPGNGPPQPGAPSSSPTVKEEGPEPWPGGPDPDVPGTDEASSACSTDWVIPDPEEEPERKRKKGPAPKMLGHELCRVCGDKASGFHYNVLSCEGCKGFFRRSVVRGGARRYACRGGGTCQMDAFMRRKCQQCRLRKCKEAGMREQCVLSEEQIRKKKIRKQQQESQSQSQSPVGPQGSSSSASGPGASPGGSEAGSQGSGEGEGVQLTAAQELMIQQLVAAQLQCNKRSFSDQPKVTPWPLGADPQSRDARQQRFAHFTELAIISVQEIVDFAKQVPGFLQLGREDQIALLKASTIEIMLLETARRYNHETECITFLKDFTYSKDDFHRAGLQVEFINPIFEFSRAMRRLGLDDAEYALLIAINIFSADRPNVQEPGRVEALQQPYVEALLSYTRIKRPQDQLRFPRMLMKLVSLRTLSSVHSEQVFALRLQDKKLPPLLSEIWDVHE

[4] = target: T2, Nuclear receptor ROR-beta (Homo sapiens, UniProt Q92753); test: Activity at RORbeta (unknown origin)
T2 sequence (Q92753 whole entry): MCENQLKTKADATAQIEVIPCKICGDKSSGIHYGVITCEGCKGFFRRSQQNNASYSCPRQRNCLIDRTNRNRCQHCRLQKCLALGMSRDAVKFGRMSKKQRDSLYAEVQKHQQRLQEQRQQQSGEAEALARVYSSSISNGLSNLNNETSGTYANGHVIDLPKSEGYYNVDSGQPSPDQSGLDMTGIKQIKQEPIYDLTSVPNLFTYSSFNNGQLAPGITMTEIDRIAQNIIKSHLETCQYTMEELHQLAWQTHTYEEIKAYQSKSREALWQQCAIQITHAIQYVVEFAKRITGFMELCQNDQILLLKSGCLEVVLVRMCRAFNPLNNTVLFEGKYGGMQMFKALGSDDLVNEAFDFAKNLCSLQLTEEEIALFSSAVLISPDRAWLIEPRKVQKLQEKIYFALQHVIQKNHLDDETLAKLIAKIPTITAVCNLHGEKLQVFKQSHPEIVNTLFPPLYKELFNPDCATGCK

[5] = target: T3, Nuclear receptor subfamily 1 group I member 2 (Homo sapiens, UniProt O75469); test: Activity at PXR (unknown origin)
T3 sequence (O75469 whole entry): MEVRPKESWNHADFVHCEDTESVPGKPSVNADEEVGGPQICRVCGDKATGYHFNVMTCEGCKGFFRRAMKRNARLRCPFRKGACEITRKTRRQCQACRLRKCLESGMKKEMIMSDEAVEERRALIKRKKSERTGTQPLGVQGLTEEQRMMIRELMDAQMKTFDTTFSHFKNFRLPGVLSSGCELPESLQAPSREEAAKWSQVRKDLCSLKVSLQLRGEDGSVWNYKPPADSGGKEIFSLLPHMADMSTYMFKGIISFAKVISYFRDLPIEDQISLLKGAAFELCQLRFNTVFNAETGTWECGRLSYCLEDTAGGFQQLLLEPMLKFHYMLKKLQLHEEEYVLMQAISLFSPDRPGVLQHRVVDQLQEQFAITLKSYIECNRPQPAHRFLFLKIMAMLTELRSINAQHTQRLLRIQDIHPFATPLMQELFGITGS

[6] = target: T4, Oxysterols receptor LXR-alpha (Homo sapiens, UniProt Q13133); test: Activity at LXRalpha (unknown origin)
T4 sequence (Q13133 whole entry): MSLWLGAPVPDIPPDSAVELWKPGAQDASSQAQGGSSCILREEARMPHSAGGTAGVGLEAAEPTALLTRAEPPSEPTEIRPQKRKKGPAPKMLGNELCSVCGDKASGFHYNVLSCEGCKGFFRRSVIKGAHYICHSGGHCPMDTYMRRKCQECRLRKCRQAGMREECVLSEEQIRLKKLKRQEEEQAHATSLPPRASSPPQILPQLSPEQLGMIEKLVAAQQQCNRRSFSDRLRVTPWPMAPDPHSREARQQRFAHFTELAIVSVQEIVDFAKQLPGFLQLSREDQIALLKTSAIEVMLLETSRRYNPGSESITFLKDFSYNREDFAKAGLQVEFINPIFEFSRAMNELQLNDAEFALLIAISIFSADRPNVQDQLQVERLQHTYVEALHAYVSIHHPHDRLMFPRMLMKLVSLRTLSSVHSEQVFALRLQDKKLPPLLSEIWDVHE

[7] = target: T5, Nuclear receptor ROR-alpha (Homo sapiens, UniProt P35398); test: Activity at RORalpha (unknown origin)
T5 sequence (P35398 whole entry): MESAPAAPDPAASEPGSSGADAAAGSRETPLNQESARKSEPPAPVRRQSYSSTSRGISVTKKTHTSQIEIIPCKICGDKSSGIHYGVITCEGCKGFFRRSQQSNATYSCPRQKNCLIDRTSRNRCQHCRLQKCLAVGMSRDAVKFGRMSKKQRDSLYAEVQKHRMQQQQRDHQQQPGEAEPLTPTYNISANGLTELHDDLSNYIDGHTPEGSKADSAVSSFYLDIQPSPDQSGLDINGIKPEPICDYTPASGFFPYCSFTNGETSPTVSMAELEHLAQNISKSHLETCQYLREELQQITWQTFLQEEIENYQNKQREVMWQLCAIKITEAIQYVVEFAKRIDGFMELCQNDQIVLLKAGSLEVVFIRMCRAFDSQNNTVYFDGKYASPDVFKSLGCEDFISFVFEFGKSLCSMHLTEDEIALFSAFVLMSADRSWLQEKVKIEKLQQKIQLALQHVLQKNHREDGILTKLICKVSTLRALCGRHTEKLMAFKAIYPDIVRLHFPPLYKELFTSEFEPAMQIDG

[8] = Half life in human liver microsomes; type: ADME, Microsome
[9] = Unbound fraction in human serum; type: ADME, cell-free
[10] = Drug level in Balb/c mouse at 10 mg/kg, po after 24 hrs; type: ADME, organism-based; settings: in vivo, read-out: Drug uptake
[11] = Cmax in Balb/c mouse at 10 mg/kg, po; type: ADME, organism-based; set-up: dose 10 mg/kg, route oral; settings: in vivo

Row | SMILES | half-life [1] [h] | half-life [2] [h] | IC50 [3] [µM] | IC50 [4] [µM] | IC50 [5] [µM] | IC50 [6] [µM] | IC50 [7] [µM] | half-life [8] [h] | fraction unbound [9] | concentration at 24 h [10] [nM] | Cmax [11] [nM]
1 | CC(=O)N1CCC(C(=O)N2CC[C@@]3(S(=O)(=O)c4ccc(F)cc4)c4ccc(C(F)(C(F)(F)F)C(F)(F)F)cc4CC[C@@H]23)CC1 | 0.85 | 0.817 | > 10 | > 10 | > 40 | > 10 | > 10 | 0.35 |  |  | 
2 | CCCN1C[C@H]2N(C(=O)[C@H]3CC[C@H](C(=O)O)CC3)CC[C@@]2(S(=O)(=O)c2ccc(F)cc2)c2ccc(C(F)(C(F)(F)F)C(F)(F)F)cc21 | > 2 | 1.77 | > 10 | > 10 | > 40 | > 10 | > 10 | 1.53 | 0.002 |  | 
3 | O=C(O)[C@H]1CC[C@](O)(C(=O)N2CC[C@@]3(S(=O)(=O)c4ccc(F)cc4)c4ccc(C(F)(C(F)(F)F)C(F)(F)F)cc4CC[C@@H]23)CC1 | > 2 | > 2 | > 10 | > 10 | > 40 | > 10 | > 10 | 1.65 |  | 260 | 2500
4 | Cc1ccc(S(=O)(=O)[C@@]23CCN(C(=O)[C@H]4CC[C@H](C(=O)O)CC4)[C@@H]2CCc2cc(C(F)(C(F)(F)F)C(F)(F)F)ccc23)cc1 | > 2 | 1.02 | > 10 | > 10 | > 40 | > 10 | > 10 | 1.37 |  |  | 
5 | O=C(N1CC[C@@]2(S(=O)(=O)c3ccc(F)cc3)c3ccc(C(F)(C(F)(F)F)C(F)(F)F)cc3NC[C@@H]12)C1(O)CCS(=O)(=O)CC1 |  |  | > 10 | > 10 | > 40 | > 10 | > 10 |  | 0.006 |  | 
6 | O=C(O)[C@H]1CC[C@H](C(=O)N2CC[C@@]3(S(=O)(=O)c4cccc(Cl)c4)c4ccc(C(F)(C(F)(F)F)C(F)(F)F)cc4CC[C@@H]23)CC1 | > 2 | > 2 | > 10 | > 10 | > 40 | > 10 | > 10 | > 2 |  |  | 
7 | O=C(O)[C@H]1CC[C@H](C(=O)N2CC[C@@]3(S(=O)(=O)c4cccc(F)c4)c4ccc(C(F)(C(F)(F)F)C(F)(F)F)cc4CC[C@@H]23)CC1 | 1.65 | > 2 | > 10 | > 10 | > 40 | > 10 | > 10 | 1.83 |  |  | 
8 | O=C(O)[C@H]1CC[C@H](C(=O)N2CC[C@@]3(S(=O)(=O)c4ccc(Cl)cc4)c4ccc(C(F)(C(F)(F)F)C(F)(F)F)cc4CC[C@@H]23)CC1 | > 2 | > 2 | > 10 | > 10 | > 40 | > 10 | > 10 | > 2 |  |  | 
9 | O=C(O)[C@H]1CC[C@H](C(=O)N2CC[C@@]3(S(=O)(=O)c4ccc(F)cc4)c4ccc(C(F)(C(F)(F)F)C(F)(F)F)cc4OC[C@@H]23)CC1 | > 2 | > 2 | > 10 | > 10 | > 40 | > 10 | > 10 | > 2 | 0.003 |  | 
10 | C[C@]1(C(=O)O)CC[C@H](C(=O)N2CC[C@@]3(S(=O)(=O)c4ccc(F)cc4)c4ccc(C(F)(C(F)(F)F)C(F)(F)F)cc4CC[C@@H]23)CC1 | > 2 | 1.73 | > 10 | > 10 | > 40 | > 10 | > 10 | > 2 |  |  | 
11 | O=C(O)[C@H]1CC[C@H](C(=O)N2CC[C@@]3(S(=O)(=O)Cc4ccccc4)c4ccc(C(F)(C(F)(F)F)C(F)(F)F)cc4CC[C@@H]23)CC1 |  |  | > 10 | > 10 | > 40 | > 10 | > 10 |  |  |  | 
12 | O=C(N1CC[C@@]2(S(=O)(=O)c3ccc(F)cc3)c3ccc(C(F)(C(F)(F)F)C(F)(F)F)cc3OC[C@@H]12)C1(O)CCS(=O)(=O)CC1 | > 2 | 1.58 | > 10 | > 10 | > 40 | > 10 | > 10 | > 2 |  |  | 
13 | C[C@]1(C(=O)N2CC[C@@]3(S(=O)(=O)c4ccc(F)cc4)c4ccc(C(F)(C(F)(F)F)C(F)(F)F)cc4CC[C@@H]23)CC[C@H](C(=O)O)CC1 | 1.4 | 1.78 | > 10 | > 10 | > 40 | > 10 | > 10 | 1.82 |  |  | 
14 | O=C(O)C12CC(C(=O)N3CC[C@@]4(S(=O)(=O)c5ccc(F)cc5)c5ccc(C(F)(C(F)(F)F)C(F)(F)F)cc5CC[C@@H]34)(C1)C2 |  |  | > 10 | > 10 | > 40 | > 10 | > 10 |  |  |  | 
15 | O=C(O)[C@H]1CC[C@H](C(=O)N2CC[C@@]3(S(=O)(=O)c4ccc(F)cc4)c4ccc(C(F)(C(F)(F)F)C(F)(F)F)cc4NC[C@@H]23)CC1 | > 2 | > 2 | > 10 | > 10 | > 40 | > 10 | > 10 | > 2 | 0.014 |  | 
16 | O=C(O)[C@H]1CC[C@@H](C(=O)N2CC[C@@]3(S(=O)(=O)c4ccc(F)cc4)c4ccc(C(F)(C(F)(F)F)C(F)(F)F)cc4CC[C@@H]23)CC1 |  |  | > 10 | > 10 | > 40 | > 10 | > 10 |  |  |  | 
17 | Cc1cccc(S(=O)(=O)[C@@]23CCN(C(=O)[C@H]4CC[C@H](C(=O)O)CC4)[C@@H]2CCc2cc(C(F)(C(F)(F)F)C(F)(F)F)ccc23)c1 | > 2 | 0.417 | > 10 | > 10 | > 40 | > 10 | > 10 | > 2 |  |  | 
18 | O=C(C1CCS(=O)(=O)CC1)N1CC[C@@]2(S(=O)(=O)c3ccc(F)cc3)c3ccc(C(F)(C(F)(F)F)C(F)(F)F)cc3CC[C@@H]12 | > 2 | 1.1 | > 10 | > 10 | > 40 | > 10 | > 10 | > 2 |  |  | 
